Measured values published in ChEMBL document CHEMBL5291721, “A preclinical secondary pharmacology resource illuminates target-adverse drug reaction associations of marketed drugs” (Nat Commun, 2023).

Key:
[1] = target: T1, Type-1 angiotensin II receptor (Homo sapiens, UniProt P30556)
T1 sequence (P30556 whole entry): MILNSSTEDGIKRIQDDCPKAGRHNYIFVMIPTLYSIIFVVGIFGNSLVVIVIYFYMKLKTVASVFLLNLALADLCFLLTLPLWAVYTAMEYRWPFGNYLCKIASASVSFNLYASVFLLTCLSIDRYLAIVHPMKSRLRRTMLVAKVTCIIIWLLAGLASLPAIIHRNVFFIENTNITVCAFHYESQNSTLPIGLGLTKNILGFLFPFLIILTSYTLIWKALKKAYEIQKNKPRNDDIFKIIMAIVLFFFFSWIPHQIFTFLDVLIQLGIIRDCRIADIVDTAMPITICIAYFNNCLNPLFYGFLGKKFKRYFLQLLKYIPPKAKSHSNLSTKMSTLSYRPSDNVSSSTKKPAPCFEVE

Glucocorticoid receptor = target: T2, Glucocorticoid receptor (Homo sapiens, UniProt P04150)
T2 sequence (P04150 whole entry): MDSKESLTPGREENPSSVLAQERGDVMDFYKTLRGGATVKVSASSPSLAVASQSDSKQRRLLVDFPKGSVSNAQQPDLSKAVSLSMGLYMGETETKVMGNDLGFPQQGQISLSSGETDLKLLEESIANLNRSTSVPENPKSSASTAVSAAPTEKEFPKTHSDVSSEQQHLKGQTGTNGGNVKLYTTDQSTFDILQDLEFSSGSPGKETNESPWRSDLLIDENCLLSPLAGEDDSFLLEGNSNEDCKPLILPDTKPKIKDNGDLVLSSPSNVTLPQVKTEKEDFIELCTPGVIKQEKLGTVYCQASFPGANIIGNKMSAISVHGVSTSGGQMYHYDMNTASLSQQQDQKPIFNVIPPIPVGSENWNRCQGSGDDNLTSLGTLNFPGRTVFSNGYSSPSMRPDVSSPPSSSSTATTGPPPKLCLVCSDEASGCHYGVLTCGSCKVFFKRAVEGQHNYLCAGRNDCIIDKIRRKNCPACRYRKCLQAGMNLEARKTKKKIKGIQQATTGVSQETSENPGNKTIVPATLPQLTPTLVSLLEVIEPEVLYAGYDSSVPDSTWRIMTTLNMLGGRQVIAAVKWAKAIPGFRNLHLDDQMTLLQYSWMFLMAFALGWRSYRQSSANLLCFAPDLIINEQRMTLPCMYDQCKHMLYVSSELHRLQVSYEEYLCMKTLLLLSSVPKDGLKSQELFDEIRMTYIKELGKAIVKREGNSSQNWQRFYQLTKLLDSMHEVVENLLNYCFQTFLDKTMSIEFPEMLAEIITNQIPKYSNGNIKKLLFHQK

[2] = target: T3, Amine oxidase [flavin-containing] A (Homo sapiens, UniProt P21397); format: functional
T3 sequence (P21397 whole entry): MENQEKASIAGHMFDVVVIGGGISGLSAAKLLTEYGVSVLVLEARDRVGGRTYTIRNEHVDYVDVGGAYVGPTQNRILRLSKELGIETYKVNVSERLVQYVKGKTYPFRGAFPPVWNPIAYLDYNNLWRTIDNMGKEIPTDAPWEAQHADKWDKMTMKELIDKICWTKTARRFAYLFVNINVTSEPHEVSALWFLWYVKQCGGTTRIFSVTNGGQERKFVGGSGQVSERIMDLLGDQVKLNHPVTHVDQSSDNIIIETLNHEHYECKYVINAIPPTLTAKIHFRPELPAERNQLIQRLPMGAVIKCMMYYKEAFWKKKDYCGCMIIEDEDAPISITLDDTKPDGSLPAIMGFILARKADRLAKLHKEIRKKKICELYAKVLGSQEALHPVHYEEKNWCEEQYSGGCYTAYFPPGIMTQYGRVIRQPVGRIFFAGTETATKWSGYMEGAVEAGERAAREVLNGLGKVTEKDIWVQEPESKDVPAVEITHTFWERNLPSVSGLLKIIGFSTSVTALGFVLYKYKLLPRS

Mu-type opioid receptor = Mu-type opioid receptor (Homo sapiens, UniProt P35372)
Mu-type opioid receptor, sequence (P35372 whole entry): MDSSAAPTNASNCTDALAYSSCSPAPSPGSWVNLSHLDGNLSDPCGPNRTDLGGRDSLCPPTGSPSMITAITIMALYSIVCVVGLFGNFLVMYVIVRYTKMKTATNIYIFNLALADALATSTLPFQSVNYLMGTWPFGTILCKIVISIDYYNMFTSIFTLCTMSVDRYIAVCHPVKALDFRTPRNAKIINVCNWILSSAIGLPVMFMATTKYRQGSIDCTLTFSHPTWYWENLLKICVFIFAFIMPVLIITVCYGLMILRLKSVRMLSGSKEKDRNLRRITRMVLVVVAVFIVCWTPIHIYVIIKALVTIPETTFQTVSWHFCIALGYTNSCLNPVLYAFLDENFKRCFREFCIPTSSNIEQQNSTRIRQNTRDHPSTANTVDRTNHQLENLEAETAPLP

Histamine H1 receptor = Histamine H1 receptor (Homo sapiens, UniProt P35367)
Histamine H1 receptor, sequence (P35367 whole entry): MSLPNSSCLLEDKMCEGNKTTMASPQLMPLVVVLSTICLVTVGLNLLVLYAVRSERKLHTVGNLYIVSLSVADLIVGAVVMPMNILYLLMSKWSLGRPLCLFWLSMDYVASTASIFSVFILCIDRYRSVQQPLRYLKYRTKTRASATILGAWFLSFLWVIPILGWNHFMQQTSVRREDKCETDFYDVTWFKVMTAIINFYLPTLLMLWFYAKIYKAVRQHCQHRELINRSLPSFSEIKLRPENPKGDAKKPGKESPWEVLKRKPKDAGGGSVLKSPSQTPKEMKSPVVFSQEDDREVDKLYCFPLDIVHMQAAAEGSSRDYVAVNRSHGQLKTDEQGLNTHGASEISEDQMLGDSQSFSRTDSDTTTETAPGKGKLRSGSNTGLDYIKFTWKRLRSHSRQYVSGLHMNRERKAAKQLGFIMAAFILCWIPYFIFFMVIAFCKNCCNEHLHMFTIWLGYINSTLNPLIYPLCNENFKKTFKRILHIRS

Cannabinoid receptor 1 = Cannabinoid receptor 1 (Homo sapiens, UniProt P21554)
Cannabinoid receptor 1, sequence (P21554 whole entry): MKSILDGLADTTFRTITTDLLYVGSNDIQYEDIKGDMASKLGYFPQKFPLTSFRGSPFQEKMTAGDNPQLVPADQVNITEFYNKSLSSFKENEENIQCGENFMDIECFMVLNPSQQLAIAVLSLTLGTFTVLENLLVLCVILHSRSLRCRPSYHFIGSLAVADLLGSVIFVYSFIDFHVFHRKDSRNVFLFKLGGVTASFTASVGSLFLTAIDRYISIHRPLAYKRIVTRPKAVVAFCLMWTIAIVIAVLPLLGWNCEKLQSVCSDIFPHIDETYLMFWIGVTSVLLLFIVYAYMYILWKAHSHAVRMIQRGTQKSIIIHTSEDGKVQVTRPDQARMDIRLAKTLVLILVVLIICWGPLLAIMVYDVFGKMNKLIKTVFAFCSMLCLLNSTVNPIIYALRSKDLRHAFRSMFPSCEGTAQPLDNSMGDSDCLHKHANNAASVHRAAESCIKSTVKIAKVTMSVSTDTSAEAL

[3] = target: 3',5'-cyclic-AMP phosphodiesterase 4D (Homo sapiens, UniProt Q08499); format: functional
3',5'-cyclic-AMP phosphodiesterase 4D, sequence (Q08499 whole entry): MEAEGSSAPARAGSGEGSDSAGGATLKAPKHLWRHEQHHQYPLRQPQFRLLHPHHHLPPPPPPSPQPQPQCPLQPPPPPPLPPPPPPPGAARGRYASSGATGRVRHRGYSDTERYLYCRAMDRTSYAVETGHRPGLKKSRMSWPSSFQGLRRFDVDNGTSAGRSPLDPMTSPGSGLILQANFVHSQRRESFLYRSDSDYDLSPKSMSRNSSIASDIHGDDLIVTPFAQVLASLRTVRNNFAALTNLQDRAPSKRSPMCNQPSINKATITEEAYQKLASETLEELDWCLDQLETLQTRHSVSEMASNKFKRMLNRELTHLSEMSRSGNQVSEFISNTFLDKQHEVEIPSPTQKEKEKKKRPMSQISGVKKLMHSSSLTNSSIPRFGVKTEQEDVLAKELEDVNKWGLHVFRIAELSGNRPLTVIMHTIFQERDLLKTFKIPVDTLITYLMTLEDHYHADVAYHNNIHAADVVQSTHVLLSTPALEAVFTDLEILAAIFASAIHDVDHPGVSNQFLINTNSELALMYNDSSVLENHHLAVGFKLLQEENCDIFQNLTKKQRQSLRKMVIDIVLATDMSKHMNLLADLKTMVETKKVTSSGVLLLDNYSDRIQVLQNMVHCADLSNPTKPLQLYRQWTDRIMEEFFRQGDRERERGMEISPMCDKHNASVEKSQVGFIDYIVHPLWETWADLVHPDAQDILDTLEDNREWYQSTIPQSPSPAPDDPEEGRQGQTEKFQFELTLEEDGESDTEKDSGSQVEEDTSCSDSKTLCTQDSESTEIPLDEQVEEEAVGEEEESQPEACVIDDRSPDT

B2 bradykinin receptor = target: T4, B2 bradykinin receptor (Homo sapiens, UniProt P30411)
T4 sequence (P30411 whole entry): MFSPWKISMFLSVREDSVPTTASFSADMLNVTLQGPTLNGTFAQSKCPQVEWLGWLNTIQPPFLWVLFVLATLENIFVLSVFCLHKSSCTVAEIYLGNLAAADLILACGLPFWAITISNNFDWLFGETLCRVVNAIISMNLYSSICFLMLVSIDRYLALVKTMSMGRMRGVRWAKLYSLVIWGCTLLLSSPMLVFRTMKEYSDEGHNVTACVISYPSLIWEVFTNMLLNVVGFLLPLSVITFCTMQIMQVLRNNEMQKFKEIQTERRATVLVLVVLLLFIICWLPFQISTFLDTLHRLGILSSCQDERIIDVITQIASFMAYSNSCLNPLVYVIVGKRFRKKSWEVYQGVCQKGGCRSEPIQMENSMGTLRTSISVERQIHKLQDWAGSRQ

[4] = target: Sodium-dependent dopamine transporter (Homo sapiens, UniProt Q01959)
Sodium-dependent dopamine transporter, sequence (Q01959 whole entry): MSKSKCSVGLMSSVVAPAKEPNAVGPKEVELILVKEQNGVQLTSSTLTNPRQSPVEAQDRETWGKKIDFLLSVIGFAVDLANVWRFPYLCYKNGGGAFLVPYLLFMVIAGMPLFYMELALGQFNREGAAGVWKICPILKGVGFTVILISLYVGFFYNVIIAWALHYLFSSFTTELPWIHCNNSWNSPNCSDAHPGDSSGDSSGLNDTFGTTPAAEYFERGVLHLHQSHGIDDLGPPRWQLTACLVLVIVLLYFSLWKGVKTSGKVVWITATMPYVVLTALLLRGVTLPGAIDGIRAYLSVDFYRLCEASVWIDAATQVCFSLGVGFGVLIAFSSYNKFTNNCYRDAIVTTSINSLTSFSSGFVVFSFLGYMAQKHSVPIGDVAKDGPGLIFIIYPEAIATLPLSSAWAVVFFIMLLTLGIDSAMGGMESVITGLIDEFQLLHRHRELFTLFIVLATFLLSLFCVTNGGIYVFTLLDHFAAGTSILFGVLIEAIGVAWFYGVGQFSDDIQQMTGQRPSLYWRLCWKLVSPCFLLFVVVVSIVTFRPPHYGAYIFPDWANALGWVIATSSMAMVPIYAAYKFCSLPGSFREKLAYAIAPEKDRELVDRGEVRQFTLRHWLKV

[5] = target: Muscarinic acetylcholine receptor M3 (Homo sapiens, UniProt P20309)
Muscarinic acetylcholine receptor M3, sequence (P20309 whole entry): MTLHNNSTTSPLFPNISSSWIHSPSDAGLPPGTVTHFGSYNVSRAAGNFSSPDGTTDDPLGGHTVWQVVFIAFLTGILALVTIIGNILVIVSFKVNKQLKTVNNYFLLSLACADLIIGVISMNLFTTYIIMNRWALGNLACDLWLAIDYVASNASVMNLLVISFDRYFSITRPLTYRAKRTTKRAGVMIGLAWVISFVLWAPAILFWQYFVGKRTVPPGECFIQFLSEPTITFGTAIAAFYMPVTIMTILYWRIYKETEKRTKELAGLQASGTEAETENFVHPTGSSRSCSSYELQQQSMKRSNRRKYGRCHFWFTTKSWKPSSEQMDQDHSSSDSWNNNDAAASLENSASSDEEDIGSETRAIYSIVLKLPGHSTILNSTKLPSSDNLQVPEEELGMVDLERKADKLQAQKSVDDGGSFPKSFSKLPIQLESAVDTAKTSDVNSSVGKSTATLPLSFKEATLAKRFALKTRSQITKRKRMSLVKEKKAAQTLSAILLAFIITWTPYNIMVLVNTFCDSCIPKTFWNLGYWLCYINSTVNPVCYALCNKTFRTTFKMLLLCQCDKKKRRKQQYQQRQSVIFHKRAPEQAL

[6] = target: T5, 5-hydroxytryptamine receptor 2A (Homo sapiens, UniProt P28223); format: functional, cell-based
T5 sequence (P28223 whole entry): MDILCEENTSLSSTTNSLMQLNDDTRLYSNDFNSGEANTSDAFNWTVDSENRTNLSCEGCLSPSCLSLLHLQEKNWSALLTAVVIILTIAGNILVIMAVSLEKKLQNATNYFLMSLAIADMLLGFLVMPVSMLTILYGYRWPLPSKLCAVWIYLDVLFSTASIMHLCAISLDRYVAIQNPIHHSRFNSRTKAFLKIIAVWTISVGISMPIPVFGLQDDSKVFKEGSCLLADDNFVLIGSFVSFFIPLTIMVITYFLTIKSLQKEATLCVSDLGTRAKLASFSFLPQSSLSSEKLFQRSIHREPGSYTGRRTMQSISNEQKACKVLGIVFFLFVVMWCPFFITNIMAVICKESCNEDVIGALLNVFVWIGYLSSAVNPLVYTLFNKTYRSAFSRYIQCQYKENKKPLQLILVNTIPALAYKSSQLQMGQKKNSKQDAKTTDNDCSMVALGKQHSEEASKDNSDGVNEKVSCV

[7] = target: T5, 5-hydroxytryptamine receptor 2A; format: functional, cell-based; remark: listed apart in the source
Note: assay procedure not described here.

Row | Compound | AC50 [1] | AC50 (Glucocorticoid receptor) | AC50 [2] | AC50 (Mu-type opioid receptor) | AC50 (Histamine H1 receptor) | AC50 (Cannabinoid receptor 1) | AC50 [3] | AC50 (B2 bradykinin receptor) | AC50 [4] | AC50 [5] | AC50 [6] | AC50 [7]
1 | O=C(O[C@H]1C[N+]2(CCCOc3ccccc3)CCC1CC2)C(O)(c1cccs1)c1cccs1 [ACLIDINIUM BROMIDE] | > 30 µM | > 30 µM | > 10 µM | > 30 µM | 4.5 µM | > 10 µM | > 30 µM | > 30 µM | > 10 µM |  |  | 
2 | COC(=O)[C@H]1[C@H]2C[C@@H]3c4[nH]c5ccccc5c4CCN3C[C@H]2C[C@@H](OC(=O)c2cc(OC)c(OC)c(OC)c2)[C@@H]1OC [DESERPIDINE] | > 10 µM |  | > 10 µM | 8.3 µM | > 10 µM | > 10 µM | > 30 µM | > 30 µM | > 10 µM | > 30 µM | > 10 µM | > 10 µM
3 | O=C(C[S+]([O-])Cc1ccco1)NC/C=C\COc1cc(CN2CCCCC2)ccn1 (stereo not given) [LAFUTIDINE] | > 10 µM | > 10 µM | > 10 µM | > 30 µM | > 10 µM | > 10 µM | > 30 µM | > 10 µM | > 10 µM | > 30 µM | > 30 µM | > 30 µM
4 | CCC1(CC)C(=O)NC(=O)N(C)C1=O [METHARBITAL] | > 10 µM | > 10 µM | > 10 µM | > 30 µM | > 10 µM | > 10 µM | > 30 µM | > 10 µM | > 10 µM | > 30 µM | > 10 µM | > 10 µM
5 | C=C(c1ccccc1OCc1cccc(Cl)c1)n1ccnc1 [CROCONAZOLE] | > 30 µM | 3.46 µM | > 10 µM | > 30 µM | > 10 µM |  | 7.1 µM | > 30 µM | > 30 µM | > 30 µM |  | > 30 µM
6 | CC(C)(C)NCC(O)COc1cccc2c1CC(O)C(O)C2 (stereo not given) [NADOLOL] | > 10 µM | > 10 µM | > 10 µM | > 30 µM |  | > 10 µM | > 30 µM | > 10 µM | > 10 µM |  |  | 
7 | TEPRENONE | 8.72 µM | > 30 µM | > 10 µM | > 30 µM | > 10 µM |  | > 30 µM | > 30 µM | > 30 µM | > 30 µM |  | 
8 | CC1=C(CC(=O)O)c2cc(F)ccc2/C1=C\c1ccc([S+](C)[O-])cc1 (stereo not given) | > 30 µM | > 30 µM | > 10 µM | > 30 µM |  |  | > 30 µM | > 30 µM | > 30 µM |  |  | 
9 | CC(=O)N1CCN(c2ccc(OCC3COC(Cn4ccnc4)(c4ccc(Cl)cc4Cl)O3)cc2)CC1 (stereo not given) [KETOCONAZOLE] | > 10 µM | > 10 µM | > 10 µM | > 30 µM |  | > 10 µM | > 10 µM | > 10 µM | > 30 µM |  |  | 
10 | O=C(O)CCCC[C@@H]1SC[C@@H]2NC(=O)N[C@@H]21 [BIOTIN] | > 10 µM | > 10 µM | > 10 µM |  | > 10 µM | > 10 µM | > 30 µM | > 10 µM | > 10 µM | > 30 µM |  | 
